Results: patent publication US20220401589A1, “PRE-TARGETING IMAGING AGENTS” (Eli Lilly and Company, priority 2019, published 2022)
One block for each molecule: values may come before it.

Assays:
[1] = Reduction of tetrazine moiety by ascorbate formulation; format: physicochemical
Excerpt: In another aspect the present embodiments provide a pharmaceutical composition comprising Compound 1 or Compound 2, or pharmaceutically acceptable salt thereof, which is formulated in ethanol (such as, for example 10% EtOH (v/v)) and buffer (which may be PBS buffer), preferably for use in humans. […] Thus, although ascorbate formulation is readily used in many formulations for imaging, it may not be suitable for imaging with the compounds of Formula I or Formula II.

[2] = Dynamic PET-CT imaging, tracer uptake in brain, muscle and bone; format: in vivo, Male CD-1 mice; details: for Bone Mean / Brain Mean / Muscle Mean: 60 minute PET scan
Procedure: PET-CT imaging of [^18F]—N-(4-(1,2,4,5-tetrazin-3-yl)benzyl)-4-fluorobenzamide
A Siemens Inveon® Multimodality Scanner (Siemens, Germany) is used for micro PET/CT imaging. Male CD-1 (6-week-old, ˜30 g) mice are anesthetized with 3% isoflurane/97% oxygen and placed on the bed of the scanner. The mice are administered [^18F]—N-(4-(1,2,4,5-tetrazin-3-yl)benzyl)-4-fluorobenzamide via a bolus intravenous tail vein injection (˜[…] in a total volume of 200 μL saline). A total of six (four 60 min and two 90 min) dynamic PET scans are conducted, followed by a short high-resolution CT scan for anatomical registration. PET images are generated for each minute of the acquisition time. Uptake of the tracer in the brain, muscle, and bone are determined by visually drawing regions of interest (ROIs) based on the fused PET/CT images and the corresponding activity values are determined using the Inveon® Research Workplace software. All values are represented as % injected dose per gram (% ID/g).
Bone uptake throughout the scan period remained low, consistent with an absence of defluorination for this tracer. Results of the 90 min scans are similar to the 60 min scan results with peak brain uptake observed at 3.4% ID/g at 2.5 min post injection followed by an immediate wash out to 0.6% ID/g by 59.5 min. Residual uptake is also observed throughout the body of the mouse. Time activity curves are generated for [^18F]—N-(4-(1,2,4,5-tetrazin-3-yl)benzyl)-4-fluorobenzamide in CD-1 male mice (n=4). Data is shown in graphical format in FIGS. 1A and 1B and in tabular format below.

reduction of the tetrazine moiety [1]: readily reduced
SMILES: O=C(NCc1ccc(-c2nncnn2)cc1)c1ccc(F)cc1 [Compound 1, N-(4-(1,2,4,5-tetrazin-3-yl)benzyl)-4-fluorobenzamide]

Bone Mean ([2]; time 2.5 min): 1.28 % ID/g | Brain Mean ([2]; time 2.5 min): 4.06 % ID/g | Muscle Mean ([2]; time 2.5 min): 1.14 % ID/g | Bone Mean ([2]; time 3.5 min): 1.09 % ID/g | Brain Mean ([2]; time 3.5 min): 3.70 % ID/g | Muscle Mean ([2]; time 3.5 min): 1.13 % ID/g | Bone Mean ([2]; time 4.5 min): 1.04 % ID/g | Brain Mean ([2]; time 4.5 min): 3.36 % ID/g | Muscle Mean ([2]; time 4.5 min): 1.15 % ID/g | Bone Mean ([2]; time 5.5 min): 1.01 % ID/g | Brain Mean ([2]; time 5.5 min): 3.20 % ID/g | Muscle Mean ([2]; time 5.5 min): 1.17 % ID/g | Bone Mean ([2]; time 6.5 min): 1.07 % ID/g | Brain Mean ([2]; time 6.5 min): 3.01 % ID/g | Muscle Mean ([2]; time 6.5 min): 1.10 % ID/g | Bone Mean ([2]; time 7.5 min): 1.12 % ID/g | Brain Mean ([2]; time 7.5 min): 2.81 % ID/g | Muscle Mean ([2]; time 7.5 min): 1.11 % ID/g | Bone Mean ([2]; time 8.5 min): 1.04 % ID/g | Brain Mean ([2]; time 8.5 min): 2.62 % ID/g | Muscle Mean ([2]; time 8.5 min): 1.15 % ID/g | Bone Mean ([2]; time 9.5 min): 0.97 % ID/g | Brain Mean ([2]; time 9.5 min): 2.46 % ID/g | Muscle Mean ([2]; time 9.5 min): 1.09 % ID/g | Bone Mean ([2]; time 10.5 min): 1.03 % ID/g | Brain Mean ([2]; time 10.5 min): 2.32 % ID/g | Muscle Mean ([2]; time 10.5 min): 1.09 % ID/g | Bone Mean ([2]; time 11.5 min): 1.01 % ID/g | Brain Mean ([2]; time 11.5 min): 2.17 % ID/g | Muscle Mean ([2]; time 11.5 min): 1.08 % ID/g | Bone Mean ([2]; time 12.5 min): 0.93 % ID/g | Brain Mean ([2]; time 12.5 min): 2.07 % ID/g | Muscle Mean ([2]; time 12.5 min): 1.06 % ID/g | Bone Mean ([2]; time 13.5 min): 0.96 % ID/g | Brain Mean ([2]; time 13.5 min): 1.97 % ID/g | Muscle Mean ([2]; time 13.5 min): 1.06 % ID/g | Bone Mean ([2]; time 14.5 min): 0.78 % ID/g | Brain Mean ([2]; time 14.5 min): 1.88 % ID/g | Muscle Mean ([2]; time 14.5 min): 1.00 % ID/g | Bone Mean ([2]; time 15.5 min): 0.89 % ID/g | Brain Mean ([2]; time 15.5 min): 1.79 % ID/g | Muscle Mean ([2]; time 15.5 min): 1.02 % ID/g | Bone Mean ([2]; time 16.5 min): 0.96 % ID/g | Brain Mean ([2]; time 16.5 min): 1.70 % ID/g | Muscle Mean ([2]; time 16.5 min): 1.02 % ID/g | Bone Mean ([2]; time 17.5 min): 0.87 % ID/g | Brain Mean ([2]; time 17.5 min): 1.64 % ID/g | Muscle Mean ([2]; time 17.5 min): 1.03 % ID/g | Bone Mean ([2]; time 18.5 min): 0.92 % ID/g | Brain Mean ([2]; time 18.5 min): 1.58 % ID/g | Muscle Mean ([2]; time 18.5 min): 1.05 % ID/g | Bone Mean ([2]; time 19.5 min): 0.93 % ID/g | Brain Mean ([2]; time 19.5 min): 1.52 % ID/g | Muscle Mean ([2]; time 19.5 min): 0.94 % ID/g | Bone Mean ([2]; time 20.5 min): 1.01 % ID/g | Brain Mean ([2]; time 20.5 min): 1.47 % ID/g | Muscle Mean ([2]; time 20.5 min): 0.95 % ID/g | Bone Mean ([2]; time 21.5 min): 0.88 % ID/g | Brain Mean ([2]; time 21.5 min): 1.42 % ID/g | Muscle Mean ([2]; time 21.5 min): 1.06 % ID/g | Bone Mean ([2]; time 22.5 min): 0.99 % ID/g | Brain Mean ([2]; time 22.5 min): 1.38 % ID/g | Muscle Mean ([2]; time 22.5 min): 1.04 % ID/g | Bone Mean ([2]; time 23.5 min): 0.85 % ID/g | Brain Mean ([2]; time 23.5 min): 1.33 % ID/g | Muscle Mean ([2]; time 23.5 min): 0.92 % ID/g | Bone Mean ([2]; time 24.5 min): 0.88 % ID/g | Brain Mean ([2]; time 24.5 min): 1.29 % ID/g | Muscle Mean ([2]; time 24.5 min): 0.96 % ID/g | Bone Mean ([2]; time 25.5 min): 1.02 % ID/g | Brain Mean ([2]; time 25.5 min): 1.26 % ID/g | Muscle Mean ([2]; time 25.5 min): 0.97 % ID/g | Bone Mean ([2]; time 26.5 min): 0.88 % ID/g | Brain Mean ([2]; time 26.5 min): 1.23 % ID/g | Muscle Mean ([2]; time 26.5 min): 0.92 % ID/g | Bone Mean ([2]; time 27.5 min): 0.83 % ID/g | Brain Mean ([2]; time 27.5 min): 1.18 % ID/g | Muscle Mean ([2]; time 27.5 min): 0.89 % ID/g | Bone Mean ([2]; time 28.5 min): 0.92 % ID/g | Brain Mean ([2]; time 28.5 min): 1.17 % ID/g | Muscle Mean ([2]; time 28.5 min): 0.91 % ID/g | Bone Mean ([2]; time 29.5 min): 0.93 % ID/g | Brain Mean ([2]; time 29.5 min): 1.14 % ID/g | Muscle Mean ([2]; time 29.5 min): 0.94 % ID/g | Bone Mean ([2]; time 30.5 min): 0.92 % ID/g | Brain Mean ([2]; time 30.5 min): 1.11 % ID/g | Muscle Mean ([2]; time 30.5 min): 0.93 % ID/g | Bone Mean ([2]; time 31.5 min): 0.96 % ID/g | Brain Mean ([2]; time 31.5 min): 1.09 % ID/g | Muscle Mean ([2]; time 31.5 min): 0.99 % ID/g | Bone Mean ([2]; time 32.5 min): 0.85 % ID/g | Brain Mean ([2]; time 32.5 min): 1.07 % ID/g | Muscle Mean ([2]; time 32.5 min): 0.89 % ID/g | Bone Mean ([2]; time 33.5 min): 0.95 % ID/g | Brain Mean ([2]; time 33.5 min): 1.04 % ID/g | Muscle Mean ([2]; time 33.5 min): 0.93 % ID/g | Brain Mean ([2]; time 34.5 min): 1.04 % ID/g | peak brain uptake ([2]; 90 min scans, 2.5 min post injection): 3.4 % ID/g | brain uptake after wash out ([2]; 90 min scans, by 59.5 min): 0.6 % ID/g | peak brain uptake ([2]; WT mice, approximately 2.5 min post injection): 4.1±0.3 % ID/g | brain uptake after steady clearance of tracer ([2]; WT mice, by 60 minutes): 0.8±0.1 % ID/g | Bone uptake throughout the scan period ([2]; consistent with an absence of defluorination): remained low | crossing of the blood-brain-barrier ([2]; dynamic PET imaging in mice): readily crosses the blood-brain-barrier | peak brain uptake ([2]; four 60-minute PET scans, 2.5 min post injection): 4.1 % ID/g | brain uptake after steady clearance of tracer ([2]; four 60-minute PET scans, at 59.5 min): 0.8 % ID/g | reduction of the tetrazine moiety [1]: readily reduced
SMILES: O=C(NCc1ccc(-c2nncnn2)cc1)c1ccc([18F])cc1 [[^18F]—N-(4-(1,2,4,5-tetrazin-3-yl)benzyl)-4-fluorobenzamide]
Uptake throughout the body ([2]; 60-minute PET scans): observed throughout the body in organs such as the liver, kidneys and heart
